Assay results published in US12134788B2, “Engineered prephenate dehydrogenases and arogenate dehydrogenases and methods of using the same” (Wisconsin Alumni Research Foundation, priority 2017, dated 2024).
Positions count from the first letter of the chain named. Names may count otherwise. “And” between values parts separate entries of the source, which are not always exact repeats. Equal values may be shown once. “Also recorded” adds a separate entry of the source. Read-outs that look alike come from different tables or passages of the source.

How the values were obtained:
[1] = test system: Peanut PDH/ADH (AipaensisVYE8T), Arachis ipaensis, wild type; test: ADH and PDH assay: steady-state kinetics and Tyr inhibition, peanut PDH/ADH; assay type: biochemical
Protocol: (§1) Kinetic parameters of purified recombinant proteins were determined from assays conducted at varying arogenate (19.5 μM-5 mM) and prephenate concentration (23.4 μM-6 mM). Standard assay conditions were 25 mM HEPES pH 7.6, 50 mM KCl and 10% (v/v) ethylene glycol, and 0.5 mM NADP^+ with varied substrate, concentrations. Reactions were initiated by addition of enzyme and incubated at 37° C. monitored every 10-15 seconds at […] using a microplate reader (Tecan Genios). Kinetic parameters were determined by fitting initial velocity data to the Michaelis-Menten equation using the Origin software (OriginLab).
(§2) Arogenate was prepared by enzymatic conversion of prephenate (Sigma-Aldrich) as previously reported^56. For Tyr inhibition assays, Tyr was dissolved in a slightly basic solution (0.025 N NaOH) due to solubility issues, thus the concentration of lysis buffer was increased to 500 mM HEPES final concentration to buffer against the changes by addition of Tyr in the reaction. Reactions containing varying amounts of Tyr (10 μM-8 mM) with 0.5 mM NADP^+ and either 1 mM arogenate or 0.8 mM prephenate were monitored as above.

[2] = test system: MhTyrA (MhTyrAp; KUK94425.1), Methanosaeta harundinacea TyrA, wild-type; test: Kinetic analysis of MhTyrAp wild-type; assay type: biochemical; conditions: NADP+ cofactor
Protocol: (§3) FIGS. 14A-14B show a kinetic analysis of MhTyrAp wild-type and Q227E mutant enzymes. Kinetic analysis was performed with MhTyrAp wild-type (filled circle) and Q227E mutant (open square) enzymes using various concentrations of prephenate (FIG. 14A) and arogenate (FIG. 14B). Initial velocity values at each substrate concentration were fit to the Michaelis-Menten equation using Origin software. Kinetic analyses were conducted for MhTyrA wild-type using 3.41 μg of purified recombinant enzyme, and 4.56 μg and 2.28 μg of purified recombinant Q227E using prephenate and arogenate, respectively.
(§4) ADH and PDH assays were performed using purified recombinant enzymes for SsTyrA and MhTyrA Wt and Q227E mutant, while the E. coli cell lysate was used for OiTyrA as expression and purification of this enzyme was unsuccessful. Reactions contained 0.8 mM substrate (arogenate or prephenate) and 0.8 mM cofactor (NADP+ or NAD+) together with reaction buffer (25 mM HEPES pH 7.6, 50 mM KCl, 10% (v/v) ethylene glycol). For OiTyrA assays containing cell lysates, reactions were incubated for 45 minutes and analyzed using HPLC as previously reported (Schenck et al., 2015). For pure enzymes, reactions were monitored every 10-15 seconds for reduced cofactor at A340 nm using a microplate reader (Tecan Genios). Kinetic parameters of purified recombinant enzymes were determined from assays containing varying concentrations of arogenate (39.1 μM-5 mM) or prephenate (39.1 μM-5 mM) substrate and monitored 10-15 seconds for reduced cofactor at A340 nm using a microplate reader (Tecan Genios). Kinetic parameters were determined by fitting initial velocity data to the Michaelis-Menten equation using Origin software (OriginLab) from technical replicate assays (n=3). Arogenate substrate was prepared by enzymatic conversion of prephenate (Sigma-Aldrich). All enzyme assays were conducted at a reaction time and protein concentration that were in the linear range and proportional to reaction velocity.

[3] = molecular target: T1, Glycine max GmPDH1 variant N222D, SEQ ID NO: 2 (Glycine max, UniProt I1MYY4, N222D); test: ADH and PDH assay: steady-state kinetics and Tyr inhibition, GmPDH1 N222D; assay type: biochemical, Glycine max (soybean); conditions: versus wild-type GmPDH1
T1 sequence (I1MYY4 1-271 N222D): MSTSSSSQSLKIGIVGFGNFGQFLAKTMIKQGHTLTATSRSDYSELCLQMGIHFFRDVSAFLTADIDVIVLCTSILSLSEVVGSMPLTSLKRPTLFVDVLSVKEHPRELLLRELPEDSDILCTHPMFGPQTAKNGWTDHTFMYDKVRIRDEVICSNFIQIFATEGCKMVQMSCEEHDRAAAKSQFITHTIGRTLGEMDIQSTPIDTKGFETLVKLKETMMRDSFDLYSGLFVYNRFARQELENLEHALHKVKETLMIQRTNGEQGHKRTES
Protocol: as §1, §2

[4] = test system: Methanosaeta harundinacea MhTyrAp variant Q227E; test: Kinetic analysis of MhTyrAp Q227E mutant; assay type: biochemical
Protocol: as §3, §4

[5] = molecular target: T2, Medicago truncatula MtncADH variant D220C, SEQ ID NO: 10 (Medicago truncatula, UniProt A0A217FAR3, D220C); test: ADH and PDH assay: steady-state kinetics and Tyr inhibition, MtncADH D220C; assay type: biochemical; conditions: kcat/Km
T2 construct: D220C by site-directed mutagenesis
T2 sequence (A0A217FAR3 1-266 D220C): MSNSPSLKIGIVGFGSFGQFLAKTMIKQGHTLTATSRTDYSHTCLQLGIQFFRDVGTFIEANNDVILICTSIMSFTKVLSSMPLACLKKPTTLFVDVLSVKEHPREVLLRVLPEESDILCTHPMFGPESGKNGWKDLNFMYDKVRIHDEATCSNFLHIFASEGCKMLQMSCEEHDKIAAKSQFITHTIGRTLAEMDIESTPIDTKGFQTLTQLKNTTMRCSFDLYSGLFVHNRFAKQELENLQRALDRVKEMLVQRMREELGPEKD
Protocol: as §1, §2

[6] = molecular target: T3, Medicago truncatula MtPDH variant C220D, SEQ ID NO: 1 (Medicago truncatula, UniProt A0A0A0R205, C220D); test: ADH and PDH assay: steady-state kinetics and Tyr inhibition, MtPDH C220D; assay type: biochemical; conditions: compared to wild-type MtPDH
T3 sequence (A0A0A0R205 1-268 C220D): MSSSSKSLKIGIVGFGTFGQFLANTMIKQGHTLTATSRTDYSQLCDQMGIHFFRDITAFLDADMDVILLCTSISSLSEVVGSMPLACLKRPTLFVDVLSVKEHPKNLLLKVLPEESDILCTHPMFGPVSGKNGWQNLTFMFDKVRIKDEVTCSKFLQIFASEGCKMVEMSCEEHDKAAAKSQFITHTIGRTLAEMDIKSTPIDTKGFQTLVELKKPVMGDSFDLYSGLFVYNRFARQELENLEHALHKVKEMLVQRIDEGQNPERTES
Protocol: as §1, §2

[7] = molecular target: T4, GmPDH1 (Gm18g02650), soybean (Glycine max) prephenate dehydrogenase, wild type (Glycine max, UniProt I1MYY4); test: ADH and PDH assay: steady-state kinetics and Tyr inhibition, GmPDH1 wild type; assay type: biochemical
T4 construct: homodimer
T4 sequence (I1MYY4 1-271): T1 sequence (I1MYY4 1-271 N222D) with D222N
Protocol: as §1
as §2, with “Reactions containing varying amounts of Tyr (10 μM-8 mM) with 0.5 mM NADP^+ and either 1 mM arogenate or 0.8 mM prephenate were monitored as above.” left out

[8] = molecular target: T5, MtPDH (MtPDH1; Mt3g071980), Medicago truncatula prephenate dehydrogenase, wild type (Medicago truncatula, UniProt A0A0A0R205); test: ADH and PDH assay: steady-state kinetics and Tyr inhibition, MtPDH wild type; assay type: biochemical; conditions: preference for prephenate
T5 sequence (A0A0A0R205 1-268): T3 sequence (A0A0A0R205 1-268 C220D) with D220C
Protocol: as §1
as §2, with “Reactions containing varying amounts of Tyr (10 μM-8 mM) with 0.5 mM NADP^+ and either 1 mM arogenate or 0.8 mM prephenate were monitored as above.” left out

[9] = PDH assay: steady-state kinetics of purified recombinant plant enzymes with prephenate; assay type: biochemical; conditions: prephenate versus arogenate, NADP+ cofactor
Source text: As used herein, a polypeptide may “have greater arogenate dehydrogenase activity than prephenate dehydrogenase activity” or “have greater prephenate dehydrogenase activity than arogenate dehydrogenase activity” when the steady-state kinetic parameters (kcat/Km (mM^−1s^−1)) for arogenate dehydrogenase activity are greater than the steady-state parameters (kcat/Km (mM^−1s^−1)) for prephenate dehydrogenase activity or when the steady-state kinetic parameters (kcat/Km (mM^−1s^−1)) for prephenate dehydrogenase activity are greater than the steady-state parameters (kcat/Km (mM^−1s^−1)) for arogenate dehydrogenase activity. Steady-state kinetic parameters may be measured using techniques similar to those described by the inventors in the Examples. Briefly, kinetic parameters of purified polypeptides can be determined from assays conducted at varying arogenate and prephenate concentrations. Standard assay conditions include 25 mM HEPES pH 7.6, 50 mM KCl and 10% (v/v) ethylene glycol, and 0.5 mM NADP^+ with varied substrate, concentrations. Reactions can be initiated by the addition of the polypeptide and incubated at 37° C. monitored every 10-15 seconds at A340nm using a microplate reader. Kinetic parameters may be determined by fitting initial velocity data to the Michaelis-Menten equation using the Origin software.
as §1

[10] = Tyr inhibition assay of ADH activity (arogenate substrate); assay type: biochemical; conditions: Tyr up to 8 mM
Protocol: as §2

[11] = PDH assay of microbial TyrA enzymes (Example 2); assay type: biochemical; conditions: 0.8 mM arogenate or prephenate, 0.8 mM cofactor
Protocol: as §4

[12] = ADH assay of microbial TyrA enzymes (Example 2); assay type: biochemical; conditions: ADH activity, NADP+ versus NAD+, 0.8 mM
Protocol: as §4

In the case of `O=C(O)C(=O)CC1(C(=O)O)C=CC(O)C=C1` (centres unmarked) [prephenate], the Km ([1]; 0.5 mM NADP^+, pH 7.6, 37° C.) is reported as 190 ± 10 µM, the kcat ([1]; 0.5 mM NADP^+, pH 7.6, 37° C.) is reported as 2.8 ± 0.2 s⁻¹ and the kcat/Km ([1]; 0.5 mM NADP^+, pH 7.6, 37° C.) is reported as 14,740 M^−1 s^−1. It also gave a kcat/Km ([1]; FIG. 7A, with NADP^+) of 14.9 mM⁻¹ s⁻¹, a Km [2] of 378 µM and a Km ([2]; pH 7.6) of 378 ± 20 µM. The kcat ([2]; pH 7.6) was 2.4 s⁻¹ and 2.44 ± 0.38 s⁻¹, the kcat/Km ([2]; pH 7.6) was 6.4 mM⁻¹ s⁻¹ and 6.44 ± 0.02 mM⁻¹ s⁻¹ and the “fold reduction in kcat/Km with prephenate” value [3] was 115 fold. The kcat ([4]; NADP+ cofactor, pH 7.6) was 0.285 ± 0.17 s⁻¹, the kcat/Km ([4]; NADP+ cofactor, pH 7.6) was 0.1 mM⁻¹ s⁻¹ and 0.107 ± 0.01 mM⁻¹ s⁻¹ and the Km ([4]; NADP+ cofactor, pH 7.6, read-out: Km) was 2.7 mM and 2.67 mM. The Km ([4]; read-out: Km for prephenate) was 2.4 mM, the “fold increase in Km for prephenate” value ([4]; versus wild-type) was about 10 fold and the “fold reduction of catalytic efficiency (kcat/Km)” value ([4]; versus wild-type) was 60 fold. For the same molecule, the “fold preference for prephenate over arogenate” value [5] was 1.7 fold, the “fold higher Km” value [6] was 31 fold and the kcat ([7]; 0.5 mM NADP^+, pH 7.6, 37° C.) was 30.4 s⁻¹. The “fold higher kcat/Km, prephenate versus arogenate” value ([7]; preference for prephenate) was 139 fold and the “fold higher kcat/Km, prephenate versus arogenate” value [8] was 21 fold.

B1: AtADH2 D241N: site-directed mutant of Arabidopsis canonical ADH, Asp241 to Asn (protein)
chain: MLLHFSPAKPLISPPNLRRNSPTFLISPPRSLRIRAIDAAQIFDYETQLKSEYRKSSALKIAVLGFGNFGQFLSKTLIRHGHDLITHSRSDYSDAANSIGARFFDNPHDLCEQHPDVVLLCTSILSTESVLRSFPFQRLRRSTLFVDVLSVKEFPKALFIKYLPKEFDILCTHPMFGPESGKHSWSGLPFVYDKVRIGDAASRQERCEKFLRIFENEGCKMVEMSCEKHDYYAAGSQFVTHTMGRVLEKYGVESSPINTKGYETLLDLVENTSSNSFELFYGLFMYNPNALEQLERLDMAFESVKKELFGRLHQQYRKQMFGGEVQSPKKTEQKLLNDGGVVPMNDISSSSSSSSSSS
modifications: Synthetic: AtADH2 D241N
notes: site-directed mutant of Arabidopsis canonical ADH, Asp241 to Asn
In the case of B1, the “substrate specificity: PDH versus ADH activity (in words)” value [9] is reported as “gained PDH activity at the expense of ADH activity” and the “feedback inhibition by Tyr (in words)” value [10] is reported as “significantly less sensitive to Tyr inhibition than the respective wild-type enzymes”.

B2: SsTyrA: TyrA from Sediminispirochaeta smaragdinae DSM 11293 (spirochaetes), recombinant (protein)
chain: MVEHTVGIYGLGRFGSFWAKSLAASGLKVIGYNRSKRALPEGVVSGSETEVLSCNTLFYCVAISSFEEVLSRTAAKIGKHTLVFDTCSVKVEPVRTMERLLPQGCTFAGSHPMFGPDSASEGMDGLPMVLCPGRDDEGKVDFWRHHFSKMGLRVIEITADRHDKEAAYTQGITHVVGRILGELDLHESEIATSGYKRLLQVREQTCNDPLQLFIDLQRYNPYTHGMRMELTSALEQIMTLFAQADLPPDRP
modifications: S. smaragdinae; misc_feature (1)..(251): S. smaragdinae TyrA SsTyrA
notes: TyrA from Sediminispirochaeta smaragdinae DSM 11293 (spirochaetes), recombinant
In the case of B2, the “ADH and PDH activity (in words)” value [11] is reported as “showed ADH activity; also recorded: PDH activity was not detectable” and the “cofactor preference (in words)” value [12] is reported as “slight preference for NAD+”.

B3: OiTyrA: TyrA from Ochrobactrum intermedium LMG 3301 (α-proteobacteria), E. coli cell lysate (protein)
chain: MRPLRGQSMSRDRNQHTKIGIIGFGAFGQLIARHLNPYFRLYAYDPAADLEQTALMHGVALASVEQVAACDIVILATPVATLESVVDKIAPHLCPGALVLDVGSVKVGPADIMRRGLPAHVDIVATHPLFGPQSARHGIAGLKIAVCPVRGTRFHRVAAFLKKHLSLNVIVTTPEDHDREAAMVQGLTHLIARVLVQMEPLPTRMTTKSFDLLMQAVSMVRHDAPEVFQAIEHANPYAPQVRRHFFALADQINEELARVQPMAAREEAA
modifications: O. intermedium; misc_feature (1)..(269): O. intermedium TyrA OiTyrA
notes: TyrA from Ochrobactrum intermedium LMG 3301 (α-proteobacteria), E. coli cell lysate
In the case of B3, the “ADH and PDH activity (in words)” value [11] is reported as “had ADH but not PDH activity” and the “cofactor preference (in words)” value [12] is reported as “strongly preferred NAD+”.
